Patent US10940139B2, “Compounds that interact with the Ras superfamily for the treatment of cancers, inflammatory diseases, rasopathies, and fibrotic disease” (Shy Therapeutics LLC, priority 2017, dated 2021)

Each molecule was assayed on MAPK phosphorylation in PANC-1 pancreatic cancer cell line (assay: MAPK cell-based phosphorylation assay (cell-direct ELISA, EGF stimulation)). Conditions: Homo sapiens.
Method: Cell lines: Tumor-derived pancreatic cancer cell lines PANC-1 were purchased from ATCC and were maintained according to ATCC recommendation.
Method: Cells were plated at 7500 cells/well density in 96-wells plate, starved over night, and the small molecules to be tested were added to the cells in the final concentration of 30 μM with 0.3% DMSO for 6 hours incubation at 37° C. For IC50 value determination, serial dilutions of compounds were added to cells under the same conditions. Next, cells were stimulated with 1.5 ng/ml EGF for 15 min. followed by cell fixation with 4% Formaldehyde in PBS at RT for 20 min. Phosphorylation level of MAPK was determined by Cell-direct ELISA.
Cell-direct ELISA: For each well, cells were permeabilized with PBS-Triton 0.1%, quenched with H2O2 0.6% in PBS-Triton 0.1%, and probed with anti-phospho-MAPK antibodies (R&D Systems) followed by HRP-conjugated secondary antibody (Jackson Immunoresearch, West Grove, Pa.). Next, a solution 50 μM of the fluorescent substrate AmpliFlu Red (Sigma) was added and incubated at RT for 20 min. At the end of the incubation time, fluorescence was measured at 595 nm on a microplate reader (AF2200; Eppendorf, Inc., Hamburg, Germany).
In the case of COCC(C)Nc1nc(-c2ccccn2)nc2sc(C)c(-c3ccccc3)c12 (stereo not shown) [drawing 1040], the IC50 is reported as 11 to 30 µM.
CCc1cc(NNC(=O)c2ccc(C#N)cc2)nc(-c2ccccn2)n1 [drawing 1041] gave an IC50 of 2 to 10 µM.

Same assay, conditions: Homo sapiens, * = tested at 10 μM
Nc1nc(-c2ccccn2)nc2c(-c3ccccn3)csc12 showed an inhibition at 10 µM of 76 to 100%.
COc1ncc(CCC(=O)Nc2nc(-c3ccccn3)nc3sccc23)cn1 was tested, and the inhibition at 10 µM was 76 to 100%.
Cc1sc2c(O)nc(-c3nccn3C)nc2c1-c1cccc(OC(F)(F)F)c1 was tested, and the inhibition at 10 µM was 25 to 50%.

Same assay, conditions: Homo sapiens, at 30 μM
With COC(=O)c1cc(NCC2NC(CC(C)C)=NO2)ccc1Cl (stereo not shown) the inhibition at 30 µM was 1 to 25%.
Work on O=[N+]([O-])c1cc(C(F)(F)F)ccc1Sc1nc2c(c(C(F)(F)F)n1)CCCC2 yielded an inhibition at 30 µM of 1 to 25%.
CCOC(=O)c1ccnc(N2CCC(C)CC2c2ccc(CC)o2)c1[N+](=O)[O-] (stereo not shown) gave an inhibition at 30 µM of 25 to 50%.
Work on N#Cc1ccc(CC(=O)Cc2ccnc(-c3ccccn3)n2)cc1 yielded an inhibition at 30 µM of 1 to 25%.
Work on O=C(CCc1cnn(-c2ccccc2)c1)Nc1nnc(-c2ccccn2)[nH]1 [drawing 992] yielded an inhibition at 30 µM of 25 to 50%.
Molecule CC(C)NC(=O)Nc1cccc(C(=O)Nc2nnc(-c3ccccn3)[nH]2)c1 [drawing 993] has an inhibition at 30 µM of 1 to 25%.
Work on COc1ccc(CCC(=O)Nc2nnc(-c3ccccn3)[nH]2)cc1F [drawing 994] yielded an inhibition at 30 µM of 51 to 75%.
O=C(Nc1nnc(-c2ccccn2)[nH]1)c1ccc2c(c1)CCO2 [drawing 995] was tested, and the inhibition at 30 µM was 1 to 25%.
For O=C(Cc1c[nH]c2ccccc12)Nc1nnc(-c2ccccn2)[nH]1 [drawing 996], the inhibition at 30 µM was 51 to 75%.
In the case of O=C(Nc1nnc(-c2ccccn2)[nH]1)C1CCn2c(cnc2-c2ccccc2)C1 (stereo not shown) [drawing 997], the inhibition at 30 µM is reported as 1 to 25%.
Work on O=C(Nc1nnc(-c2ccccn2)[nH]1)c1ccn(-c2ccccc2)n1 [drawing 998] yielded an inhibition at 30 µM of 1 to 25%.
With O=C(Nc1nnc(-c2ccccn2)[nH]1)c1ccn(-c2cccc(F)c2)n1 [drawing 999] the inhibition at 30 µM was 1 to 25%.
With COc1ccc2c(ccn2CC(=O)Nc2nnc(-c3ccccn3)[nH]2)c1 [drawing 1000] the inhibition at 30 µM was 1 to 25%.
Molecule O=C(CCc1c[nH]c2ccccc12)Nc1nnc(-c2ccccn2)[nH]1 [drawing 1001] has an inhibition at 30 µM of 25 to 50%.
O=C(Nc1nnc(-c2ccccn2)[nH]1)c1ccc2ccccc2n1 [drawing 1002] gave an inhibition at 30 µM of 1 to 25%.
Molecule CC(C)c1nc(CC(=O)Nc2nnc(-c3ccccn3)[nH]2)cs1 [drawing 1003] has an inhibition at 30 µM of 1 to 25%.
O=C(Nc1nnc(-c2ccccn2)[nH]1)c1ccc(CN2C(=O)CCC2=O)cc1 [drawing 1004] was tested, and the inhibition at 30 µM was 1 to 25%.
Work on O=C(CC1C=CCC1)Nc1nnc(-c2ccccn2)[nH]1 (stereo not shown) [drawing 1005] yielded an inhibition at 30 µM of 1 to 25%.
COc1ccc(CC(=O)Nc2nnc(-c3ccccn3)[nH]2)cc1 [drawing 1006] showed an inhibition at 30 µM of 1 to 25%.
Work on O=C(Cc1cccs1)Nc1nnc(-c2ccccn2)[nH]1 [drawing 1007] yielded an inhibition at 30 µM of 25 to 50%.
Work on O=C(Nc1nnc(-c2ccccn2)[nH]1)C1CCCC1 [drawing 1008] yielded an inhibition at 30 µM of 1 to 25%.
Molecule O=C(Nc1nnc(-c2ccccn2)[nH]1)c1ncoc1-c1cccs1 [drawing 1009] has an inhibition at 30 µM of 25 to 50%.
For O=C(Cn1c(=O)oc2ccccc21)Nc1nnc(-c2ccccn2)[nH]1 [drawing 1010], the inhibition at 30 µM was 1 to 25%.
O=C(CCNC(=O)c1ccco1)Nc1nnc(-c2ccccn2)[nH]1 [drawing 1011] was tested, and the inhibition at 30 µM was 1 to 25%.
Cc1ccc(CC(=O)Nc2nnc(-c3ccccn3)[nH]2)cn1 [drawing 1012] showed an inhibition at 30 µM of 1 to 25%.
For CC(Oc1ccccc1C#N)C(=O)Nc1nnc(-c2ccccn2)[nH]1 (stereo not shown) [drawing 1013], the inhibition at 30 µM was 51 to 75%.
CC(Oc1ccc(C(=O)Nc2nnc(-c3ccccn3)[nH]2)cn1)c1ccccc1 (stereo not shown) [drawing 1014] showed an inhibition at 30 µM of 25 to 50%.
O=C(Nc1nnc(-c2ccccn2)[nH]1)C1CCCN(c2ncccn2)C1 (stereo not shown) [drawing 1015] was tested, and the inhibition at 30 µM was 1 to 25%.
For CC(OCc1ccccc1)C(=O)Nc1nnc(-c2ccccn2)[nH]1 (stereo not shown) [drawing 1016], the inhibition at 30 µM was 1 to 25%.
O=C(Nc1nnc(-c2ccccn2)[nH]1)C1CCCC(C(F)(F)F)C1 (stereo not shown) [drawing 1017] showed an inhibition at 30 µM of 51 to 75%.
For Cc1ccc(CC(=O)Nc2nnc(-c3ccccn3)[nH]2)s1 [drawing 1018], the inhibition at 30 µM was 1 to 25%.
Work on O=C(Nc1nnc(-c2ccccn2)[nH]1)C1CCCN(c2cnccn2)C1 (stereo not shown) [drawing 1019] yielded an inhibition at 30 µM of 1 to 25%.
With Cc1nc2nc(C(F)(F)F)nn2c(C)c1CC(=O)Nc1nnc(-c2ccccn2)[nH]1 [drawing 1020] the inhibition at 30 µM was 1 to 25%.
In the case of O=C(Nc1nnc(-c2ccccn2)[nH]1)c1cccc(N2CCCS2(=O)=O)c1 [drawing 1021], the inhibition at 30 µM is reported as 1 to 25%.
Molecule CC(C)C(=O)Nc1nc(CC(=O)Nc2nnc(-c3ccccn3)[nH]2)cs1 [drawing 1022] has an inhibition at 30 µM of 1 to 25%.
Molecule CC(C)(C)c1nc(C(=O)Nc2nnc(-c3ccccn3)[nH]2)cs1 [drawing 1023] has an inhibition at 30 µM of 1 to 25%.
For O=C(Nc1nnc(-c2ccccn2)[nH]1)C1CC(=O)N(Cc2cccc(C(F)(F)F)c2)C1 (stereo not shown) [drawing 1024], the inhibition at 30 µM was 25 to 50%.
O=C(Nc1nnc(-c2ccccn2)[nH]1)C1Cc2cc(Cl)ccc2O1 (stereo not shown) [drawing 1025] showed an inhibition at 30 µM of 1 to 25%.
Work on O=C(Cc1ccc2c(c1)OCCO2)Nc1nnc(-c2ccccn2)[nH]1 [drawing 1026] yielded an inhibition at 30 µM of 1 to 25%.
In the case of O=C(Nc1nnc(-c2ccccn2)[nH]1)C1CCN(C(=O)c2cccs2)CC1 [drawing 1027], the inhibition at 30 µM is reported as 1 to 25%.
Molecule O=C(Nc1nnc(-c2ccccn2)[nH]1)c1ccn(-c2cccc(Cl)c2)n1 [drawing 1028] has an inhibition at 30 µM of 25 to 50%.
Molecule CS(=O)(=O)Cc1ccc(C(=O)Nc2nc(-c3ccccn3)cs2)cc1 [drawing 1029] has an inhibition at 30 µM of 1 to 25%.
Molecule O=C(Cn1cnc2ccccc2c1=O)Nc1nc(-c2ccccn2)cs1 [drawing 1030] has an inhibition at 30 µM of 1 to 25%.
With O=C(Nc1nc(-c2ccccn2)cs1)C1CC(=O)N(c2ccc3c(c2)OCCO3)C1 (stereo not shown) [drawing 1031] the inhibition at 30 µM was 25 to 50%.
With O=C(Nc1nc(-c2ccccn2)cs1)c1cccnc1 [drawing 1032] the inhibition at 30 µM was 1 to 25%.
Molecule O=C(Cc1cccc(F)c1)Nc1nc(-c2ccccn2)cs1 [drawing 1033] has an inhibition at 30 µM of 1 to 25%.
In the case of O=C(Nc1nc(-c2ccccn2)cs1)c1ccncc1 [drawing 1034], the inhibition at 30 µM is reported as 25 to 50%.
Work on O=C(Nc1nc(-c2ccccn2)cs1)c1ccc(F)cc1 [drawing 1035] yielded an inhibition at 30 µM of 1 to 25%.
Molecule O=c1nc(-c2ccccn2)[nH]c2scc(-c3ccccc3Cl)c12 [drawing 1036] has an inhibition at 30 µM of 25 to 50%.
In the case of O=c1nc(-c2ccccn2)[nH]c2sc(-c3ccccc3)cc12 [drawing 1037], the inhibition at 30 µM is reported as 25 to 50%.
In the case of O=c1nc(-c2ccccn2)[nH]c2c1sc1ccccc12 [drawing 1038], the inhibition at 30 µM is reported as 76 to 100%.
Molecule COCC(C)Nc1nc(-c2ccccn2)nc2sc(C)c(-c3ccccc3)c12 (stereo not shown) [drawing 1040] has an inhibition at 30 µM of 76 to 100%.
With CCc1cc(NNC(=O)c2ccc(C#N)cc2)nc(-c2ccccn2)n1 [drawing 1041] the inhibition at 30 µM was 76 to 100%.
CC(O)CNc1nc(-c2ccccn2)nc2scc(-c3ccccc3)c12 (stereo not shown) [drawing 1042] showed an inhibition at 30 µM of 25 to 50%.
Molecule Cc1sc2nc(-c3ccccn3)nc(NCCCO)c2c1-c1ccccc1 [drawing 1043] has an inhibition at 30 µM of 1 to 25%.
Work on Cc1cccc(CN(Cc2ccccn2)Cc2nccn2C)c1 [drawing 1045] yielded an inhibition at 30 µM of 25 to 50%.
With Oc1ccc(C2(c3cccc(Cl)c3)CCCC2)cc1 [drawing 1047] the inhibition at 30 µM was 76 to 100%.
In the case of COC(=O)c1ccc(C(=O)NCC2(c3ccccc3OC)CCCC2)nc1 [drawing 1048], the inhibition at 30 µM is reported as 1 to 25%.
For CCOc1cc(S(=O)(=O)N(Cc2ccccc2)Cc2ccccc2)c(OCC)cc1C [drawing 1049], the inhibition at 30 µM was 1 to 25%.
Molecule COc1ccc(CN(CC[S+]([O-])c2cc(Cl)ccc2Cl)C2CC2)cc1 (stereo not shown) [drawing 1050] has an inhibition at 30 µM of 25 to 50%.

These molecules were tested on MIA-PACA2 pancreatic cancer cell lines (assay: Cell proliferation assay (CellTiter 96 AQueous One)). Conditions: Homo sapiens, MIA PaCa-2; at 30 μM, MIA-PACA2.
Type: cell-based
With Oc1nc(-c2ccccn2)nc2c(-c3ccc4c(c3)CCCO4)csc12 [drawing 1778] the inhibition at 30 µM was 76 to 100%.
Work on CCn1nc(C)cc1-c1csc2c(O)nc(-c3ccccn3)nc12 [drawing 1779] yielded an inhibition at 30 µM of 76 to 100%.
For Oc1nc(-c2ccccn2)nc2c(-c3ccnn3-c3ccccn3)csc12 [drawing 1780], the inhibition at 30 µM was 76 to 100%.
Molecule Cc1sc2c(O)nc(-c3ccccn3)nc2c1-c1ccccc1 [drawing 1781] has an inhibition at 30 µM of 76 to 100%.
With Nc1nc(-c2ccccn2)nc2scc(C(=O)O)c12 [drawing 1782] the inhibition at 30 µM was 1 to 25%.
COC(=O)c1cc2nc(-c3ccccn3)nc(O)c2s1 [drawing 1783] was tested, and the inhibition at 30 µM was 76 to 100%.
Work on Oc1nc(-c2ccccn2)nc2c(-c3cnc4ccccc4c3)csc12 [drawing 1784] yielded an inhibition at 30 µM of 76 to 100%.
In the case of Oc1nc(-c2ccccn2)nc2c(-c3ccc(Cl)c(Cl)c3)csc12 [drawing 1785], the inhibition at 30 µM is reported as 76 to 100%.
Oc1nc(-c2ccccn2)nc2c(-c3cncc(F)c3)csc12 [drawing 1786] gave an inhibition at 30 µM of 76 to 100%.
Molecule Oc1nc(-c2ccccn2)nc2c(-c3cc(C(F)(F)F)ccc3F)csc12 [drawing 1787] has an inhibition at 30 µM of 76 to 100%.
Oc1nc(-c2ccccn2)nc2c(-c3cncc(C(F)(F)F)c3)csc12 [drawing 1788] gave an inhibition at 30 µM of 76 to 100%.
For Cc1cncc(-c2csc3c(O)nc(-c4ccccn4)nc23)c1 [drawing 1789], the inhibition at 30 µM was 76 to 100%.
For Cc1sc2c(O)nc(-c3ccccn3)nc2c1-c1cccnc1 [drawing 1790], the inhibition at 30 µM was 76 to 100%.
COc1cnc(-c2ccccn2)nc1O [drawing 1791] was tested, and the inhibition at 30 µM was 76 to 100%.
Work on COc1cnc(C2CCCN2)nc1O (stereo not shown) [drawing 1792] yielded an inhibition at 30 µM of 51 to 75%.
Molecule COc1nc(-c2ccccn2)nc2c(C3CCCC3)csc12 [drawing 1793] has an inhibition at 30 µM of 76 to 100%.
For CCC(C)c1csc2c(OC)nc(-c3ccccn3)nc12 (stereo not shown) [drawing 1794], the inhibition at 30 µM was 76 to 100%.
